Results on 1 compound are retold here after US20040186077A1, “Novel heteroaryl phosphonates as cardioprotective agents” (Medicure International Inc., priority 2003, published 2004).

Molecules are shown by their SMILES.

The subject of the experiment is Male Wistar rats. The experiment in a line: Ischemia reperfusion: LAD occlusion and reperfusion, infarct size as percentage of AAR. The class given is in vivo. As to conditions: 32 mg/kg i.v. bolus 5 min before ischemia; regional myocardial ischemia 25 min, reperfusion 2 h; P=0.047 unpaired t-test; vehicle infarct size 56±3% of the AAR. As for the experimental part: Male Wistar rats (200-300 g, Tuck, Rayleigh, Essex, U.K.) were anesthetised with thiopentone sodium (Intraval®, 120 mg/kg i.p.; Rhone-Merrieux, Essex, U.K.). The rats were tracheotomised, intubated and ventilated with a Harvard ventilator (70 strokes/min, tidal volume: 8-10 mL/kg, inspiratory oxygen concentration: 30%). Body temperature was maintained at 38±1° C. The right carotid artery was cannulated and connected to a pressure transducer (MLT 1050, AD Instruments Ltd, Hastings, UK) to monitor mean arterial blood pressure (MAP) and heart rate (HR), which were continuously recorded on a data acquisition system such as Powerlab® Version 4.0.4, AD Instruments, Hastings, UK. The right jugular vein was cannulated for drug administration and the administration of Evans Blue dye (at the end of the experiment). A lateral thoracotomy was performed and the heart was suspended in a temporary pericardial cradle. A snare occluder was placed around the left anterior descending coronary artery (LAD). After completion of the surgical procedure the animals were allowed to stabilise for 30 min before LAD ligation. Five minutes prior to the onset of myocardial ischemia, a bolus injection (i.v.) of either vehicle or phosphonate was administered. The coronary artery was occluded at time 0 by tightening of the occluder. […]

For `Cc1nc(-c2ccccc2)c(C(F)P(=O)(O)O)c(CO)c1O` (stereo not shown) [Compound 38, [Fluoro-(5-hydroxy-4-hydroxymethyl-6-methyl-2-phenyl-pyridin-3-yl)-methyl]-phosphonic acid], the myocardial infarct size entry is given as “reduced myocardial infarct size”.
